From patent publication US7906675B2, “Compounds for the treatment of metabolic disorders” (Wellstat Therapeutics Corporation, priority 2003, dated 2011)

Test system: C57BL/Ksola (db/db) mice
Experiment: Antidiabetic effects in db/db diabetic mouse model
Assay type: in vivo
Settings: serum, 60 mg/kg daily oral for 17 days
Text: C57BL/Ksola (db/db) mice have a defect in leptin signaling, leading to hyperphagia, obesity, hypertriglyceridemia, and diabetes. Moreover, unlike ob/ob mice on a C57BL/6J background, db/db mice on a C57BLKS background undergo failure of their insulin-producing pancreatic islet cells, resulting in progression from hyperinsulinemia (associated with peripheral insulin resistance) to hypoinsulinemic diabetes.
Male obese (db/db homozygote) C57BL/Ksola mice approximately 8 weeks of age, were obtained from Jackson Labs (Bar Harbor, Me.) and sorted into groups of 7 animals each animals such that the body weights (40-45 g) and serum glucose levels (≧300 mg/dl in fed state) were similar between groups. A minimum of 7 days was allowed for adaptation after arrival. All animals were maintained under controlled temperature (23° C.), relative humidity (50±5%) and light (7:00-19:00), and allowed free access to standard chow (Formulab Diet 5008, Quality Lab Products, Elkridge, Md.) and water.
Groups of mice received daily oral doses of vehicle (1% hydroxypropylmethylcellulose) or Compound CS (60 mg/kg) for 17 days. At the end of the treatment period, blood samples were collected and serum glucose, triglycerides, and free fatty acids were measured.

SMILES: Cc1cccc(C)c1CSc1ccc(C(=O)CCC(=O)O)cc1 [Compound CS, 4-(4-[(2,6-Dimethylbenzyl)-thio]-phenyl)-4-oxobutyric acid]
- Free Fatty Acids: 2034 ± 195 µM
- Triglycerides: 150 ± 10 mg/dL
- Glucose (±SEM): 593 ± 77 mg/dL
